US7192929B2, “Peptides effective in the treatment of tumors and other conditions requiring the removal or destruction of cells” (Nymox Corporation, priority 2001, dated 2007)
Ends that are not written are not given here.

What was measured:
[1] = test system: glioma and neuroblastoma cell cultures; conditions: cited from earlier work
[2] = test system: normal rodent muscle tissue, subcutaneous connective tissue, and dermis; conditions: cited from earlier work
[3] = test system: human and non-human origin tumors, including mammary carcinoma, skin carcinoma and papilloma, colon carcinoma, glioma of brain; conditions: variety of human and non-human origin tumors in rodent models; cited from earlier work
[4] = test system: muscle tissue, subcutaneous connective tissue, and dermis; assay type: in vivo, rat; conditions: for effect on tissue at sites of injection (histopathology): normal rats, skin, subcutaneous and skeletal muscle injection, in saline, 0.1–1 mg/mL, sacrificed at 24 hours
Procedure: Four normal rats were injected in the skin and subcutaneously, each in four different foci, and in extremity skeletal muscle, each in two different foci, with NTP peptide #7 in saline in quantities of […] at concentrations of 0.1–1 mg/mL delivered from plastic syringes through stainless steel 26 gauge needles.
The individual foci of infiltration were excised, fixed in 10% formalin, embedded in paraffin, and stained and examined by standard histopathological methods.
The controls received saline alone.
Rats were injected in the skin and subcutaneously as in Example 1 above, except they were injected with NTP peptide #14.
Tissues were excised, fixed in 10% formalin, embedded in paraffin, and stained and examined by standard histopathological methods.
The controls were the same as Example 1.

[5] = test system: prostate; experiment: Intraprostatic infusion in rats, histology of prostate gland; assay type: in vivo, rat; conditions: 300 μl of 1 mg/mL in PBS pH 7.4 (1.0 mg/kg), sacrificed after 72 hours
Procedure: Four rats were anesthetized with ether and given NTP peptide #7 by intraprostatic infusion. The injections consisted of 300 μl of NTP peptide #7 1 mg/mL in PBS pH 7.4. (1.0 mg/kg). Controls received injections of PBS alone or no injection. Rats were painlessly sacrificed after 72 hours. Prostate glands were dissected, fixed in 10% buffered formalin for 24 hours, embedded in paraffin, sectioned, and stained with H & E. For each animal the entire prostate gland was embedded and sectioned. All stained sections were examined histologically.
Normal rats were injected in the prostate as in the above Example 2, except they were injected with NTP peptide #17. Rats were painlessly sacrificed after 72 hours and their prostate glands were examined as in Example 2.

For “AD7c-NTP protein: ˜41 kD membrane associated phosphoprotein, a neural thread protein; sequence in FIG. 1”, the “causing cell death in vitro” value [1] is given as “effective agent for causing cell death”, the “causing cell death in vivo in normal tissue” value [2] is given as “effective agent for causing cell death” and the “causing cell death in vivo in tumors” value [3] is given as “effective agent for causing cell death”.
With LSLPSSWDYG [NTP peptide #7] the “effect on tissue at sites of injection (histopathology)” value [4] was “necrosis of tissue at the injection sites”, the “spread of necrosis beyond the site of injection” value ([4]; rat, in vivo, sc) was “did not appear to spread far beyond the site of injection” and the “effect on prostate tissue at sites of injection (histology)” value [5] was “necrosis of tissue at the injection sites with loss of glandular epithelium, flattening and atrophy”.
In the case of “PASASPVAGITGM [NTP peptide #17, …; AD7c-NTP p31–43]”, the “effect on prostate tissue at sites of injection (histology)” value [5] is reported as “significant cell loss and atrophy in the prostate”.
With “WDYRRFIFNFL [NTP peptide #14, …; AD7c-NTP p241–245 + AD7c-NTP p197–202]” the “effect on tissue at sites of injection (histopathology)” value [4] was “cell death and necrosis of tissue at the injection sites”.
